Experimental data from US20240343761A1, “APELINERGIC MACROCYCLES AND USES THEREOF” (priority 2021, published 2024).
Like-named read-outs stand apart in the source and are kept apart here. Numbered stars: 1 amine (or outer) side, 2 acyl side, 3 side chain; on linkers, the order of the positions; unused ones are H or OH. Bridge positions count the residues as written; N and C are the ends. Square brackets hold non-standard residues; d marks the D form. Peptide text beside a SMILES is read from it. * marks the point of attachment. X3 = O=C([C@H](CCCCNCCC=[*:3])N[*:1])[*:2]; X9 = O=C([C@H](CCCNCCC=[*:3])N[*:1])[*:2]; X2 = Cc1ccc2nc(-c3ccc(N*)cc3)sc2c1; dAllylGly = C=CC[C@@H](N)C(=O)O; AllylGly = C=CC[C@H](N)C(=O)O; pGlu = O=C1CC[C@@H](C(=O)O)N1; Nle = CCCC[C@H](N)C(=O)O; Ava = NCCCCC(=O)O; Bn = c1ccc(C*)cc1

Key:
human APJ (hAPJ) = target: T1, human APJ (hAPJ) (Homo sapiens, UniProt P35414); assay: Competitive radioligand binding ([125I][Nle75,Tyr77][Pyr1]-Ape13) on membranes of HEK293 cells stably expressing human APJ
T1 construct: expressed in transfected cells; cell membranes
T1 sequence (P35414 1-380): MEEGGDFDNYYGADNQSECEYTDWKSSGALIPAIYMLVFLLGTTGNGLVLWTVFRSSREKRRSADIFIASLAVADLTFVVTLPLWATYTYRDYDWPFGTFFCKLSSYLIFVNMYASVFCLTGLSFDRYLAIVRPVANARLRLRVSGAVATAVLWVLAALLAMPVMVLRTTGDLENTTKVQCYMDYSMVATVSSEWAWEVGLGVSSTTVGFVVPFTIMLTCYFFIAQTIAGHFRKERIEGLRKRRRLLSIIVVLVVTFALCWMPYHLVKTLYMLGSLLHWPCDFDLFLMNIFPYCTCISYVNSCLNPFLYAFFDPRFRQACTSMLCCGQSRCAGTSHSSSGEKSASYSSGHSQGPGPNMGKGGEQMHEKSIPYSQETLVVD
Protocol: HEK293 cells stably expressing YFP-tagged human APJ were cultured in DMEM medium supplemented with 10% FBS, at 37° C. under a humid atmosphere maintaining 5% CO2. Antibiotic G418 (400 μg/mL) was added to maintain a selection pressure for APJ-expressing cells while penicillin/streptomycin (0.1%) were used to prevent bacterial contamination.
Binding experiments were performed on cell membranes of HEK293 stably expressing the YFP-tagged human APJ receptor. Cells were frozen at −80° C. for storage and quickly thawed right before the experiments (1 min at 37° C.). […] The precipitate (cell membranes) was suspended in binding buffer (50 mM Tris-HCl, 0.2% BSA, pH 7.4). Binding assays were run in 96-well plates. […] (820 Ci/mmol)^3 and test ligand with a range of concentrations from 10^−1 to 10^−11 M in a total volume of 200 μL for 1 h at room temperature.
The incubation mixtures were filtered through a glass fiber filter (Millipore, pre-absorbed of PEI 0.5% for 2 h at 4° C.) to remove unbound ligands, and the filter membranes were washed three times with 170 μL cold binding buffer (4° C.). The γ emission was measured using a 1470 Wizard γ-counter from PerkinElmer (Waltham, USA) (80% efficiency).

hAPJ receptor [1] = target: T2, hAPJ receptor (Homo sapiens, UniProt P35414); assay: BRET-based Gαi1 activation assay in HEK293 cells; type: cell-based
T2 construct: expressed in transfected cells; host or cells: HEK293, transient transfection with PEI
T2 sequence (P35414 1-380): T1 sequence (P35414 1-380)
Protocol: (§1) HEK293 cells were cultivated in high glucose DMEM medium having 10% FBS, 100 U/mL penicillin/streptomycin, 2 mM glutamine, and 20 mM HEPES at 37° C. in T175 flasks under humidified chamber at 5% CO2. […] Cells were then washed with phosphate-buffered saline (PBS) and 90 μL Hanks' balanced salt solution was added in each well. Then, cells were stimulated with analogs at concentrations ranging from 10^−5 M to 10^−11 M for 5 min at 37° C. (Gαi1) or for 30 min at room temperature (β-arrestin2). After stimulation, 5 μM of coelanterazine 400A was added to each well and the plate was read using the BRET^2 filter set of a GeniosPro plate reader (Tecan, Austria). The BRET ratio was determined as GFP10em/RlucIIem. Data were plotted and EC50 values were determined using GraphPad Prism 8. Each data point represents the mean±SEM of at least three different experiments each done in triplicate.

hAPJ receptor [2] = target: T2, hAPJ receptor; assay: BRET-based β-arrestin2 recruitment assay in HEK293 cells; type: cell-based
Protocol: as §1

Structure (SMILES): CCCC[C@H](NC(=O)[C@@H]1CCCN1C(=O)CNC(=O)[C@H](CCCCN)NC(=O)[C@H](Cc1c[nH]cn1)NC(=O)[C@H](CO)NC(=O)[C@@H]1CC=CC[C@H](NC(=O)[C@@H]2CCC(=O)N2)C(=O)N2CCC[C@H]2C(=O)N[C@@H](CCCNC(=N)N)C(=O)N1)C(=O)N1CCC[C@H]1C(=O)N[C@@H](Cc1ccccc1)C(=O)O [Compound 3, Pyr-c[X-P-R-X]c-S-H-K-G-P-Nle-P-F] ([pGlu][AllylGly]PR[AllylGly]SHKGP[Nle]PF-OH; staple 2-5)
- Ki (human APJ (hAPJ); Ki binding): 1250 ± 284 nM

Structure (SMILES): CCCC[C@H](NC(=O)[C@@H]1CCCN1C(=O)CNC(=O)[C@H](CCCCN)NC(=O)[C@@H]1CC=CC[C@H](NC(=O)[C@@H]2CCC(=O)N2)C(=O)N2CCC[C@H]2C(=O)N[C@@H](CCCNC(=N)N)C(=O)N[C@@H](CC(C)C)C(=O)N[C@@H](CO)C(=O)N1)C(=O)N1CCC[C@H]1C(=O)N[C@@H](Cc1ccccc1)C(=O)O [Compound 4, Pyr-c[X-P-R-L-S-X]c-K-G-P-Nle-P-F] ([pGlu][AllylGly]PRLS[AllylGly]KGP[Nle]PF-OH; staple 2-7)
- Ki (human APJ (hAPJ); Ki binding): 148 ± 21 nM

Structure (SMILES): CCCC[C@H](NC(=O)[C@@H]1CCCN1C(=O)CNC(=O)[C@H](CCCCN)NC(=O)[C@H](Cc1c[nH]cn1)NC(=O)[C@H](CO)NC(=O)[C@@H]1CC=CC[C@H](NC(=O)[C@@H]2CCC(=O)N2)C(=O)N2CCC[C@H]2C(=O)N[C@@H](C)C(=O)N1)C(=O)N1CCC[C@H]1C(=O)N[C@@H](Cc1ccccc1)C(=O)O [Compound 5, Pyr-c[X-P-A-X]c-S-H-K-G-P-Nle-P-F] ([pGlu][AllylGly]PA[AllylGly]SHKGP[Nle]PF-OH; staple 2-5)
- Ki (human APJ (hAPJ); Ki binding): > 10000 nM

Structure (SMILES): CCCC[C@H](NC(=O)[C@@H]1CCCN1C(=O)CNC(=O)[C@H](CCCCN)NC(=O)[C@H](Cc1c[nH]cn1)NC(=O)[C@@H]1CC=CC[C@H](NC(=O)[C@@H]2CCC(=O)N2)C(=O)N2CCC[C@H]2C(=O)N[C@@H](C)C(=O)N[C@@H](CC(C)C)C(=O)N1)C(=O)N1CCC[C@H]1C(=O)N[C@@H](Cc1ccccc1)C(=O)O [Compound 6, Pyr-c[X-P-A-L-X]c-H-K-G-P-Nle-P-F]
- Ki (human APJ (hAPJ); Ki binding): > 10000 nM

Structure (SMILES): CCCC[C@H](NC(=O)[C@@H]1CCCN1C(=O)CNC(=O)[C@H](CCCCN)NC(=O)[C@@H]1CC=CC[C@H](NC(=O)[C@@H]2CCC(=O)N2)C(=O)N2CCC[C@H]2C(=O)N[C@@H](C)C(=O)N[C@@H](CC(C)C)C(=O)N[C@@H](CO)C(=O)N1)C(=O)N1CCC[C@H]1C(=O)N[C@@H](Cc1ccccc1)C(=O)O [Compound 7, Pyr-c[X-P-A-L-S-X]c-K-G-P-Nle-P-F] ([pGlu][AllylGly]PALS[AllylGly]KGP[Nle]PF-OH; staple 2-7)
- Ki (human APJ (hAPJ); Ki binding): > 10000 nM

Structure (SMILES): CCCC[C@H](NC(=O)[C@@H]1CCCN1C(=O)CNC(=O)[C@@H]1CC=CC[C@H](NC(=O)[C@@H]2CCC(=O)N2)C(=O)N2CCC[C@H]2C(=O)N[C@@H](C)C(=O)N[C@@H](CC(C)C)C(=O)N[C@@H](CO)C(=O)N[C@@H](Cc2c[nH]cn2)C(=O)N1)C(=O)N1CCC[C@H]1C(=O)N[C@@H](Cc1ccccc1)C(=O)O [Compound 8, Pyr-c[X-P-A-L-S-H-X]c-G-P-Nle-P-F] ([pGlu][AllylGly]PALSH[AllylGly]GP[Nle]PF-OH; staple 2-8)
- Ki (human APJ (hAPJ); Ki binding): > 10000 nM

Structure (SMILES): CCCC[C@@H]1NC(=O)[C@@H]2CCCN2C(=O)[C@H](NC(=O)[C@H](CCCCN)NC(=O)[C@H](Cc2c[nH]cn2)NC(=O)[C@H](CO)NC(=O)[C@H](CC(C)C)NC(=O)[C@H](CCCNC(=N)N)NC(=O)[C@@H]2CCCN2C(=O)[C@H](CCCNC(=N)N)NC(=O)[C@@H]2CCC(=O)N2)CC=CC[C@@H](C(=O)O)NC(=O)[C@@H]2CCCN2C1=O [Compound 9, Pyr-R-P-R-L-S-H-K-[dX-P-Nle-P-X]] ([pGlu]RPRLSHK[dAllylGly]P[Nle]P[AllylGly]-OH; staple 9-13)
- Ki (human APJ (hAPJ)): 52 ± 15 nM

Structure (SMILES): CCCC[C@@H]1NC(=O)[C@@H]2CCCN2C(=O)[C@@H](NC(=O)[C@H](CCCCN)NC(=O)[C@H](Cc2c[nH]cn2)NC(=O)[C@H](CO)NC(=O)[C@H](CC(C)C)NC(=O)[C@H](CCCNC(=N)N)NC(=O)[C@@H]2CCCN2C(=O)[C@H](CCCNC(=N)N)NC(=O)[C@@H]2CCC(=O)N2)CC=CC[C@H](C(=O)O)NC(=O)[C@@H]2CCCN2C1=O [Compound 10, Pyr-R-P-R-L-S-H-K-[X-P-Nle-P-dX]] ([pGlu]RPRLSHK[AllylGly]P[Nle]P[dAllylGly]-OH; staple 9-13)
- Ki (human APJ (hAPJ)): 187 ± 20 nM

Structure (SMILES): CC(C)C[C@@H]1NC(=O)[C@H](CCCNC(=N)N)NC(=O)[C@@H](N)CC=CC[C@@H](C(=O)N[C@@H](CCCCN)C(=O)O)NC(=O)[C@H](CO)NC1=O [Compound 30, NH2-c[X-R-L-S-X]c-K] (H-[AllylGly]RLS[AllylGly]K-OH; staple 1-5)
- Ki (human APJ (hAPJ); Ki binding): > 10000 nM

Structure (SMILES): CCCC[C@H](NC(=O)[C@@H]1CCCN1C(=O)CNC(=O)[C@@H]1CC=CC[C@H](N)C(=O)N[C@@H](CCCNC(=N)N)C(=O)N[C@@H](CC(C)C)C(=O)N[C@@H](CO)C(=O)N1)C(=O)O [Compound 31, NH2-c[X-R-L-S-X]c-G-P-Nle] (H-[AllylGly]RLS[AllylGly]GP[Nle]-OH; staple 1-5)
- Ki (human APJ (hAPJ); Ki (APJ affinity)): 0.6 nM
- Ki (human APJ (hAPJ); Ki binding): > 10000 nM

Structure (SMILES): CCCC[C@H](NC(=O)[C@@H]1CCCN1C(=O)CCCCNC(=O)[C@@H]1CC=CC[C@H](N)C(=O)N[C@@H](CCCNC(=N)N)C(=O)N[C@@H](CC(C)C)C(=O)N[C@@H](CO)C(=O)N1)C(=O)O [Compound 32, NH2-c[X-R-L-S-X]c-5Ava-P-Nle] (H-[AllylGly]RLS[AllylGly][Ava]P[Nle]-OH; staple 1-5)
- Ki (human APJ (hAPJ); Ki binding): > 10000 nM

Structure (SMILES): N=C(N)NCCC[C@@H]1NC(=O)[C@@H](N)CC=CCCNCCC[C@@H](C(=O)N2CCC[C@H]2C(=O)N[C@@H](Cc2ccc(OCc3ccccc3)cc2)C(=O)O)NC1=O [Compound 51, NH2-c[X-R-Orn(N-butenyl)]-P-Tyr(Obn)] (H-[AllylGly]R[X9]PY(Bn)-OH; staple 1-3)
- Ki (human APJ (hAPJ); Ki binding): > 10000 nM

Structure (SMILES): N=C(N)NCCC[C@H](N)C(=O)N[C@H]1CCCCNCCC=CC[C@@H](C(=O)N[C@H](Cc2ccc(OCc3ccccc3)cc2)C(=O)O)NC(=O)[C@@H]2CCCN2C1=O [Compound 57, NH2-R-c[K(N-butenyl)-P-X]-(D-Tyr(Obn))] (H-R[X3]P[AllylGly][dY](Bn)-OH; staple 2-4)
- Ki (human APJ (hAPJ); Ki binding): > 10000 nM

Structure (SMILES): N=C(N)NCCC[C@H](N)C(=O)N[C@H]1CCCCNC(=O)CC[C@@H](C(=O)N[C@@H](Cc2ccc(OCc3ccccc3)cc2)C(=O)O)NC(=O)[C@@H]2CCCN2C1=O [Compound 58, NH2-R-c[K-P-E]-Tyr(Obn)] (H-RKPEY(Bn)-OH; lactam 2-4)
- Ki (human APJ (hAPJ); Ki binding): > 10000 nM

Structure (SMILES): CCCC[C@H](NC(=O)[C@@H]1CCCN1C(=O)[C@@H]1CCCCNC(=O)CC[C@H](NC(=O)[C@H](CC(C)C)NC(=O)[C@H](CCCNC(=N)N)NC(=O)[C@@H]2CCCN2C(=O)[C@H](CCCNC(=N)N)NC(=O)[C@H](CCC(N)=O)NC(=O)[C@H](CCCNC(=N)N)NC(=O)[C@H](CCCNC(=N)N)NC(=O)[C@H](Cc2ccccc2)NC(=O)[C@H](CCCCN)NC(C)=O)C(=O)N[C@@H](Cc2c[nH]cn2)C(=O)N[C@@H](CCCCN)C(=O)N1)C(=O)N1CCC[C@H]1C(=O)N[C@@H](CC(=O)Nc1ccc(-c2nc3ccc(C)cc3s2)cc1)C(=O)O [Compound 68, Ac-K-F-R-R-Q-R-P-R-L-[E-H-K-K]-P-Nle-P-B2] (Ac-KFRRQRPRLEHKKP[Nle]PD(X2)-OH; lactam 10-13)
- Ki (human APJ (hAPJ); Ki binding): 4 ± 1 nM

Structure (SMILES): CC(C)C[C@@H]1NC(=O)[C@@H]2CCCN2C(=O)[C@@H](NC(=O)[C@H](CO)NC(=O)[C@H](CCCNC(=N)N)NC(=O)[C@H](CCCNC(=N)N)NC(=O)[C@@H]2CCC(=O)N2)CCC(=O)NCCCC[C@@H](C(=O)N[C@@H](CCCNC(=N)N)C(=O)N[C@H](C(=O)N2CCC[C@H]2C(=O)N[C@@H](Cc2ccccc2)C(=O)N2C[C@H](OCc3ccccc3)C[C@H]2C(=O)O)C(C)C)NC(=O)[C@H](Cc2c[nH]cn2)NC1=O [Compound 93, Pyr-R-R-S-[E-P-L-H-K]-R-V-P-F-Hyp(OBn)]
- EC50 (hAPJ receptor [1]): 47 ± 3 nM
- EC50 (hAPJ receptor [2]): 2200 ± 132 nM
